{"source": "patent US20230085721A1", "about": "“PIGMENT COMPRISING RAPHANUS SATIVUS EXTRACT AND MONTMORILLONITE” (GIVAUDAN SA, priority 2020, published 2023)", "test_system": "human normal keratinocytes (NHEKs)", "test": "ROS production after oxidative stress (DCFH-DA method)", "format": "cell-based", "details": "200 μM", "method": "The anti-oxidant properties of Raphanus sativus L. root extract was evaluated using human normal keratinocytes (NHEKs) by quantification of Reactive Oxygen Species (ROS) production after oxidative stress exposure according to the dichlorodihydrofluorescein diacetate (DCFH-DA; “Dichloro-dihydro-fluorescein diacetate (DCFH-DA) assay: a quantitative method for oxidative stress assessment of nanoparticle-treated cells”. Aranda et al. Toxicol In Vitro. 2013, 27(2):954-63.) method. In contact with cells, DCFH-DA is cleaved inside the cell to DCFH which is able to interact with reactive oxygen species (ROS) during oxidative stress leading to fluorescence emission. Consequently, the fluorescence emitted is correlated to the antioxidant property of the tested compound. The cell culture was done on primary cells freshly isolated from biopsies. Normal Human Epidermal Keratinocytes (NHEKs) were seeded in a black plate with a glass bottom at 20′000 cells per well in 96-wells plates with a type I collagen pre-coating in quadruplicate. The cells were incubated for 24 hours in complete medium (Epilife medium supplemented with HKGS) at 37° C. with 5% CO2. […] Finally, the emitted fluorescence was measured in darkness by excitation wavelength at 488 nm and emission wavelength at 525 nm with microplate reader (TECAN). […]", "note": "Marks after values point to notes of the source that are not given here.", "data": [{"smiles": "Oc1ccc(C=Cc2cc(O)cc(O)c2)cc1", "note": "[Resveratrol]", "values": [{"measurement": "Comparison to oxidative stress, no active", "setting": "5 mM TBP, p < 0.001", "result": "−76", "unit": "%***"}, {"measurement": "Mean relative to TBP condition", "setting": "ROS, NHEKs, oxidative stress 5 mM TBP", "result": 24.0, "unit": "%"}]}]}
